Results from ChEMBL document CHEMBL5120859, “Optimization of 4-arylthiophene-3-carboxylic acid derivatives as inhibitors of ANO1: Lead optimization studies toward their analgesic efficacy for inflammatory pain” (Eur J Med Chem, 2022).
Activity calls are given as the source filed them. The rule behind the calls is not given here.

Columns and labels:
[1] = molecular target: T1, Anoctamin-1 (Homo sapiens) (UniProt Q5XXA6); assay: Inhibition of YFP tagged ANO1 (unknown origin) expressed in FRT cells at 30 uM incubated for 24 hrs by whole cell patch clamp electrophysiology relative to control; format: cell-based
T1 sequence (whole entry): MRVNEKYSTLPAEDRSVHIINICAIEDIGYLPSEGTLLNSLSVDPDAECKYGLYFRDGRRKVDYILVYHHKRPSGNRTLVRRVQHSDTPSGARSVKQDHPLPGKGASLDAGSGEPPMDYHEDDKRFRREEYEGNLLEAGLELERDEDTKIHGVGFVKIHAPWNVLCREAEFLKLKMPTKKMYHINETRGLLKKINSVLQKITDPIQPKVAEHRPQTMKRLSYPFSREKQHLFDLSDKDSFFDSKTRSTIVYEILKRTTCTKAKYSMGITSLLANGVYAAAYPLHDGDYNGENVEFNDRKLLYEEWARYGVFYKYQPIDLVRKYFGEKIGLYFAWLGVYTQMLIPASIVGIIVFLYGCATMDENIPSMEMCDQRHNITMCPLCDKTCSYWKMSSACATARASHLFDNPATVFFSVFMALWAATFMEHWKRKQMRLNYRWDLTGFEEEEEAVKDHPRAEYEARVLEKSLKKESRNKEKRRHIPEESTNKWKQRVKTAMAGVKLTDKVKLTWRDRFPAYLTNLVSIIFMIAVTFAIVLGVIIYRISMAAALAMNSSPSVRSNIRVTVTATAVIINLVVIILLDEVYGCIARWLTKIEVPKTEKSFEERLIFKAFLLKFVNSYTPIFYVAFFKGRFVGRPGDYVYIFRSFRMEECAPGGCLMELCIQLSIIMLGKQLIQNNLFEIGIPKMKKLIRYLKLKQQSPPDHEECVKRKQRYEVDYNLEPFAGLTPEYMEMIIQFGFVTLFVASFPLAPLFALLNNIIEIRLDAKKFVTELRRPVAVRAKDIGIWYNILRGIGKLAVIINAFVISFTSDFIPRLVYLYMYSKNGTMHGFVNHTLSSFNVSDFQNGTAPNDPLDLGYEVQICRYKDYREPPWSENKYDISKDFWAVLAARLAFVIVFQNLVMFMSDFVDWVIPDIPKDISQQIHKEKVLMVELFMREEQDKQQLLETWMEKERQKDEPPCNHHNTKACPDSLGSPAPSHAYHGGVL

[2] = molecular target: T2, Anoctamin-2 (Homo sapiens) (UniProt Q9NQ90); assay: Inhibition of human ANO2 expressed in HEK293 cells at 30 uM incubated for 5 mins by whole cell patch clamp electrophysiology relative to control; format: cell-based
T2 sequence (whole entry): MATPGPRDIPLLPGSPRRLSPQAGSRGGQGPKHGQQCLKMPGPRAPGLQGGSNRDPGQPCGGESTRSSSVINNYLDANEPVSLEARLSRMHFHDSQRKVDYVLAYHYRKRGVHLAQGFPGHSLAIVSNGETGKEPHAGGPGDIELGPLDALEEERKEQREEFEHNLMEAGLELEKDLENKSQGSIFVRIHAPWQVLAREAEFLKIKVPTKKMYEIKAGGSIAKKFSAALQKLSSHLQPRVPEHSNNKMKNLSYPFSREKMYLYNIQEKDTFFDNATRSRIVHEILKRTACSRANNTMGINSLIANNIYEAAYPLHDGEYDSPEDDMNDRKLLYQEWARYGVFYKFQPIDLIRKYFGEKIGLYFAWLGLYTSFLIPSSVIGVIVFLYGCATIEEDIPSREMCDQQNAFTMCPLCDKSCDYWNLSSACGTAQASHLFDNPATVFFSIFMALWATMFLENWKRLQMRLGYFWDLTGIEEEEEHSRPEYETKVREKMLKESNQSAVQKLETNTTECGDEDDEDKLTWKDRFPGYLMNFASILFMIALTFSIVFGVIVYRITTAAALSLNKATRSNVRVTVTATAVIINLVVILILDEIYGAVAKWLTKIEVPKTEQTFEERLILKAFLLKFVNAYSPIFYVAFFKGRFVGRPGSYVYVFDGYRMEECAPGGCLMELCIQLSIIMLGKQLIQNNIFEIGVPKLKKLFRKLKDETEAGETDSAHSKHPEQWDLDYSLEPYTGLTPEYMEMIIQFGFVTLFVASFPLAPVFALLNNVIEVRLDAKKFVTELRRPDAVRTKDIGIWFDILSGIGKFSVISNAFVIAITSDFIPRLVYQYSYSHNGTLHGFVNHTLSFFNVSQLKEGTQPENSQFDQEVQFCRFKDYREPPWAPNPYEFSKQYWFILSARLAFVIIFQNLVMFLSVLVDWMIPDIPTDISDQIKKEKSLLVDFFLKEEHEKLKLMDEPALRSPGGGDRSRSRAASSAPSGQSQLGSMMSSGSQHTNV

Anoctamin-1 = molecular target: T3, Anoctamin-1 (Homo sapiens, UniProt Q5XXA6); assay: Inhibition of YFP tagged ANO1 (unknown origin) expressed in FRT cells incubated for 24 hrs by fluorescence plate reader assay; format: cell-based
T3 sequence (Q5XXA6 whole entry): T1 sequence (whole entry)

Mus musculus [3] = assay: Analgesic activity in C57BL/6 mouse model of formalin-induced allodynia assessed as reduction on foot licking pain response at 40 mg/kg,po measured after 10 mins; format: functional, organism-based
[4] = molecular target: Voltage-gated potassium channel, KQT; KCNQ2(Kv7.2)/KCNQ3(Kv7.3) (Homo sapiens) (UniProt O43526+O43525); assay: Inhibition of KCNQ2/3 (unknown origin) at a holding potential -40 mV at 30 uM by whole cell patch clamp electrophysiology relative to control
Mus musculus [5] = assay: Analgesic activity in C57BL/6 mouse model of formalin-induced allodynia assessed as reduction on foot licking pain response at 20 mg/kg,po measured after 10 mins; format: functional, organism-based
[6] = Cytotoxicity against human HEK293 cells assessed as inhibition of cell growth at 30 uM incubated for 72 hrs by CCK-8 assay; format: toxicity, cell-based
[7] = molecular target: Voltage-gated inwardly rectifying potassium channel KCNH2 (Homo sapiens, UniProt Q12809); assay: Cardiotoxicity against human ERG expressed in HEK293 cells by patch clamp assay; format: toxicity, cell-based
Chain of Voltage-gated inwardly rectifying potassium channel KCNH2 (Q12809 whole entry): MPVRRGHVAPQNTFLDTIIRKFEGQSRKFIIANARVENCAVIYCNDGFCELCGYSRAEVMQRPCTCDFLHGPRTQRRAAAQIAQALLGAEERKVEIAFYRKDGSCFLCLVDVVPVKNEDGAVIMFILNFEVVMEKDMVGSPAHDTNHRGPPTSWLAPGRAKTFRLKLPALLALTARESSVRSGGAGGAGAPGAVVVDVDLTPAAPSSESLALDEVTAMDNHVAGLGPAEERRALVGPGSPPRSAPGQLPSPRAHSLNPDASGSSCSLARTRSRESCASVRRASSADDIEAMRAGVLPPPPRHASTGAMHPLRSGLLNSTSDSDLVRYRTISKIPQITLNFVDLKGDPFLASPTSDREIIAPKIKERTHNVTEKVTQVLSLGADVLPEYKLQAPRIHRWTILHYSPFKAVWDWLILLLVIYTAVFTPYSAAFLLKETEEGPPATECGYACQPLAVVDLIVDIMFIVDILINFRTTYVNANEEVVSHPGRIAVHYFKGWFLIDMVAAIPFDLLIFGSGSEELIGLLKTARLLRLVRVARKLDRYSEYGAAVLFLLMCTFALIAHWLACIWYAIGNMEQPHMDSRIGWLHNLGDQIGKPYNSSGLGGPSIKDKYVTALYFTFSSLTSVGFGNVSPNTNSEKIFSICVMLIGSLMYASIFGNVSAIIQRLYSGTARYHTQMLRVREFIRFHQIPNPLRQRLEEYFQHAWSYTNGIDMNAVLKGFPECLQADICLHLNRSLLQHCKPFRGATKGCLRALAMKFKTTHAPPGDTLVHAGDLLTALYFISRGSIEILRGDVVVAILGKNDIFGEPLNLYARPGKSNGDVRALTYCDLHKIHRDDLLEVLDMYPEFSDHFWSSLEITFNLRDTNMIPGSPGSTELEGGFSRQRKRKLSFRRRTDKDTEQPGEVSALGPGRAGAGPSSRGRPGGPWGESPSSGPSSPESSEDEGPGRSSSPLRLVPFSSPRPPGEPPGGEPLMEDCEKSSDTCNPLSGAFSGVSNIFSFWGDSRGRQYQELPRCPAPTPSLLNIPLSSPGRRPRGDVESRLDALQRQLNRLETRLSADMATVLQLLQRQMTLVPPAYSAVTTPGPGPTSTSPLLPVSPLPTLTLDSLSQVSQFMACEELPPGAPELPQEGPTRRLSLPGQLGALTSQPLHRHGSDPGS

[8] = molecular target: Transient receptor potential cation channel subfamily V member 1 (Homo sapiens) (UniProt Q8NER1); assay: Inhibition of TRPV1 (unknown origin) at a holding potential +100 mV at 30 uM by whole cell patch clamp electrophysiology relative to control
Chain of Transient receptor potential cation channel subfamily V member 1 (Homo sapiens) (Q8NER1 whole entry): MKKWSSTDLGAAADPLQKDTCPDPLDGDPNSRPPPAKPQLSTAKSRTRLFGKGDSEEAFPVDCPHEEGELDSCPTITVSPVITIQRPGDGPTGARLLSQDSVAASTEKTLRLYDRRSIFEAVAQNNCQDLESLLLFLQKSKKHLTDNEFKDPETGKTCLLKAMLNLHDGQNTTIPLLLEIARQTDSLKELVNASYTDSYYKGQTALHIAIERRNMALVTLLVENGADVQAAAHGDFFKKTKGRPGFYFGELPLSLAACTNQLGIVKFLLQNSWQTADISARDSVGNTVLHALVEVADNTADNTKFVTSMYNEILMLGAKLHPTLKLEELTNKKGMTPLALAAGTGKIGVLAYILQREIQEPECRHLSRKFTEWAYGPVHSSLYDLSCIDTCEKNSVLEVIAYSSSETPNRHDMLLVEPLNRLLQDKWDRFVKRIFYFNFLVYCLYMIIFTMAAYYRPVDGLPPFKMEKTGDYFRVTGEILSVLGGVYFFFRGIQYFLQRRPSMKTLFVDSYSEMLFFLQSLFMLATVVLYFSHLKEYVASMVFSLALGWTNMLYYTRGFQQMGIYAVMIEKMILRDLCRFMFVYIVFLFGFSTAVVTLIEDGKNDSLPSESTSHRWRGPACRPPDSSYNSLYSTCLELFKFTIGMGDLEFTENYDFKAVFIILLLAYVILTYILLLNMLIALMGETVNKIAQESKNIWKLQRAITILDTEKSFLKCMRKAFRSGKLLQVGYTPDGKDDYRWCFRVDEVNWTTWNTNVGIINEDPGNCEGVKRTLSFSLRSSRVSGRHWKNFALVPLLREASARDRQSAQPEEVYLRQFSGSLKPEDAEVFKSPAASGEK

[9] = molecular target: Transient receptor potential cation channel subfamily V member 1 (Homo sapiens) (UniProt Q8NER1); assay: Inhibition of TRPV1 (unknown origin) at a holding potential +100 mV at 10 uM by whole cell patch clamp electrophysiology relative to control
[10] = molecular target: Voltage-dependent N-type calcium channel subunit alpha-1B (Homo sapiens) (UniProt Q00975); assay: Inhibition of Cav2.2 (unknown origin) at a holding potential +10 mV at 10 uM by whole cell patch clamp electrophysiology relative to control
Chain of Voltage-dependent N-type calcium channel subunit alpha-1B (Homo sapiens) (Q00975 whole entry, looked up, tested part not stated): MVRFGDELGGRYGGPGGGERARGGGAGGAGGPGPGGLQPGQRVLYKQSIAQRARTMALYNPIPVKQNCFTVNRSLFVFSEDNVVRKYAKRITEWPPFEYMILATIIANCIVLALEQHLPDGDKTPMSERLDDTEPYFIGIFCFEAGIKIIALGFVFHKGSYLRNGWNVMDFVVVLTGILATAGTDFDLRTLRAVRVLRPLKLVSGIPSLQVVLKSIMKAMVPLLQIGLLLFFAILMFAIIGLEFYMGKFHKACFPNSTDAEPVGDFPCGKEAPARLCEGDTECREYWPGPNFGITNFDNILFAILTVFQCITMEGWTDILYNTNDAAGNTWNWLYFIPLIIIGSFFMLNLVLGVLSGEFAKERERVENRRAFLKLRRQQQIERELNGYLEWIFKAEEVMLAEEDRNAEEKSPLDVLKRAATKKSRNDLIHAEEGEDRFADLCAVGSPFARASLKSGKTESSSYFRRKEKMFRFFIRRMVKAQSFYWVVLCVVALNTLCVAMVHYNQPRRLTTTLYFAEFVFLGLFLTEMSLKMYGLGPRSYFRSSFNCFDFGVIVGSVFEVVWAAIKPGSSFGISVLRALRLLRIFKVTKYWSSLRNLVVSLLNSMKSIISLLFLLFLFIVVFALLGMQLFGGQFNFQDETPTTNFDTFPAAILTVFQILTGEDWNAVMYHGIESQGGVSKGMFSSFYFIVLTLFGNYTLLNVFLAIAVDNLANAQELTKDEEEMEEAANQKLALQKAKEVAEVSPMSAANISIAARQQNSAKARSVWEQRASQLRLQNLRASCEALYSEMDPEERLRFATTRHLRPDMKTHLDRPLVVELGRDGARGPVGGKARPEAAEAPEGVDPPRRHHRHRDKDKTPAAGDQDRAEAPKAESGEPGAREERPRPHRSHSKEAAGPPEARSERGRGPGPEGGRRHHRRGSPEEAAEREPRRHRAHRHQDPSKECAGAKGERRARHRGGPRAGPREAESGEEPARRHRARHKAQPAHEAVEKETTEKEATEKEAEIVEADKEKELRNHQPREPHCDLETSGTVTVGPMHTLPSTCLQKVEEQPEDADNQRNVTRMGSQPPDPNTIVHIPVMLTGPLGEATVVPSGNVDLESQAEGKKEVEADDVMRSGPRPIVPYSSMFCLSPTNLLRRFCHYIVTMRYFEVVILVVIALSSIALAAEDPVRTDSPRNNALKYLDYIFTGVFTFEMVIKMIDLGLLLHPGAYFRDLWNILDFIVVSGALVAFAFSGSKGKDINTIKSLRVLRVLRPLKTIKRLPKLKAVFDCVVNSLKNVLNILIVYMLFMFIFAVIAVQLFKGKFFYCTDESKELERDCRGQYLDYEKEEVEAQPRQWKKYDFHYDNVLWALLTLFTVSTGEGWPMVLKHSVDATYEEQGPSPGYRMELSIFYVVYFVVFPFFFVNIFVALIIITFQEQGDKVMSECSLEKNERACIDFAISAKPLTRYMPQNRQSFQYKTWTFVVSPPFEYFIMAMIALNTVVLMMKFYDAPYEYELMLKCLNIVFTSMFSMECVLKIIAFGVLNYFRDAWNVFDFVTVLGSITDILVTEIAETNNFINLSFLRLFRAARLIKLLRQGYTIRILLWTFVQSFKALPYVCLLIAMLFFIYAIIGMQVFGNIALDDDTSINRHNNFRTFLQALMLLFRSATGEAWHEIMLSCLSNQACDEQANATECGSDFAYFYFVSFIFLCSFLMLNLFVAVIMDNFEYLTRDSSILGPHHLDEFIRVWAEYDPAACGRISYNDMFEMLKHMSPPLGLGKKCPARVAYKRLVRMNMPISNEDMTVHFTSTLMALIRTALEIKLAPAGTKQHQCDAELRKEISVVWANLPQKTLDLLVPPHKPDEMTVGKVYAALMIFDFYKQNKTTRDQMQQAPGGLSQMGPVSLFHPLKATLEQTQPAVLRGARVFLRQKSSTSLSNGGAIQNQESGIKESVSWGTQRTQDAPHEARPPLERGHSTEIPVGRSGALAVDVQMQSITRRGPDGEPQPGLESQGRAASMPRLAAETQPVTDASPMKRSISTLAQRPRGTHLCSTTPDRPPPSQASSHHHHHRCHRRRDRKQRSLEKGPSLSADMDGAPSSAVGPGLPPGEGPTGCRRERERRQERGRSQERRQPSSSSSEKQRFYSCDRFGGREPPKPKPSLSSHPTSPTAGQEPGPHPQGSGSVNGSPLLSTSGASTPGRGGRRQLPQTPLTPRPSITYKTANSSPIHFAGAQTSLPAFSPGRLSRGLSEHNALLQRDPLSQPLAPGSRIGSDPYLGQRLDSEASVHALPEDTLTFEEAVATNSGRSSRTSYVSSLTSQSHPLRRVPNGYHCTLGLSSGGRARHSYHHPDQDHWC

| Molecule | IC50 (Anoctamin-1) | other results |
| --- | --- | --- |
| COc1ccccc1/N=N/C(=O)COc1ccc(Cl)cc1C | 1.07 µM | inhibition [1]: 42.7%; inhibition [2]: 12.6% |
| O=C(Nc1scc(-c2ccc(Cl)cc2)c1C(=O)O)c1cccc2c1OCCO2 | > 100 µM | – |
| O=C(O)c1c(-c2ccc(Cl)cc2)csc1NC(=O)c1cccc2cccnc12 | > 300 µM | – |
| O=C(Nc1scc(-c2ccc(Cl)cc2)c1C(=O)O)c1c(Cl)cccc1Cl | 12.1 µM | – |
| CC(C)Cc1ccc(C(C)C(=O)O)cc1 (configuration not stated) | – | Activity (Mus musculus [3]): Active |
| O=C(Nc1scc(-c2ccc(Cl)cc2)c1C(=O)O)c1cc(Cl)ccc1Cl | 0.27 µM | – |
| Cc1ccc(Cl)c(C(=O)Nc2scc(-c3ccc(Cl)cc3)c2C(=O)O)c1 | 1.79 µM | – |
| O=C(Nc1scc(-c2ccc(Cl)cc2)c1C(=O)O)c1cccc(Cl)c1Cl | 1.94 µM | – |
| O=C(O)c1c(-c2ccc(Cl)cc2)csc1NC(=O)c1cccc2ncccc12 | 6.99 µM | – |
| O=C(Nc1scc(-c2ccc(Cl)cc2)c1C(=O)O)c1ccc(Cl)cc1Cl | 1.24 µM | – |
| O=C(Nc1scc(-c2ccc(Cl)cc2)c1C(=O)O)c1cc(Cl)ccc1I | 12 µM | – |
| O=C(Nc1scc(-c2ccc(Cl)cc2)c1C(=O)O)c1cccnc1 | 70.6 µM | – |
| O=C(Nc1scc(-c2ccc(Cl)cc2)c1C(=O)O)c1cnccn1 | 4.01 µM | – |
| O=C(Nc1ccc([N+](=O)[O-])cc1Cl)c1cc(Cl)ccc1O [NICLOSAMIDE] | 0.028 µM | – |
| O=C(Nc1scc(-c2ccc(Cl)cc2)c1C(=O)O)c1cc(I)ccc1Cl | 78.9 µM | – |
| CCOC(=O)Nc1ccc(NCc2ccc(F)cc2)cc1N | – | inhibition [4]: 100% |
| COc1ccc(Cl)cc1C(=O)Nc1scc(-c2ccc(Cl)cc2)c1C(=O)O | > 100 µM | – |
| CC(C)C[C@H](CN)CC(=O)O | – | Activity (Mus musculus [5]): Active |
| Cc1ccc(Cl)cc1C(=O)Nc1scc(-c2ccc(Cl)cc2)c1C(=O)O | > 100 µM | – |
| O=C(Nc1scc(-c2ccc(Cl)cc2)c1C(=O)O)c1cc(I)ccc1F | 4.49 µM | – |

| Molecule | IC50 (Anoctamin-1) | other results |
| --- | --- | --- |
| O=C(Nc1scc(-c2ccc(Cl)cc2)c1C(=O)O)c1cccc2c1OCO2 | > 100 µM | – |
| O=C(Nc1scc(-c2ccc(Cl)cc2)c1C(=O)O)c1cc(F)ccc1Cl | 6.55 µM | – |
| O=C(Nc1scc(-c2ccc(Cl)cc2)c1C(=O)O)c1cc(Br)ccc1F | 59.8 µM | – |
| O=C(Nc1scc(-c2ccc(Cl)cc2)c1C(=O)O)c1cc(Cl)ccc1C(F)(F)F | 1.59 µM | – |
| O=C(Nc1scc(-c2ccc(Cl)cc2)c1C(=O)O)c1cc(Br)ccc1Cl | 83.5 µM | – |
| O=C(Nc1scc(-c2ccc(Cl)cc2)c1C(=O)O)c1cc(C(F)(F)F)ccc1Cl | 36.9 µM | – |
| COc1ccc(Cl)c(C(=O)Nc2scc(-c3ccc(Cl)cc3)c2C(=O)O)c1 | 35.9 µM | – |
| O=C(Nc1scc(-c2ccc(Cl)cc2)c1C(=O)O)c1cc(Cl)ccc1Br | 0.029 µM | inhibition at 72 h, 30 µM [6]: < 10%; IC50 [7]: > 30 µM; inhibition [1]: 32.1%; inhibition [2]: 92.6%; inhibition [8]: 26.4% |
| O=C(O)c1c(-c2ccc(Cl)cc2)csc1NC(=O)c1cccc2ccccc12 | 0.79 µM | – |
| COc1cc(CNC(=O)CCCC/C=C/C(C)C)ccc1O | – | inhibition [9]: 96.7% |
| O=C(Nc1scc(-c2ccc(Cl)cc2)c1C(=O)O)c1cc(F)ccc1I | 2.21 µM | – |
| O=C(Nc1scc(-c2ccc(Cl)cc2)c1C(=O)O)c1ccccc1OC(F)(F)F | 5.66 µM | – |
| O=C(Nc1scc(-c2ccc(Cl)cc2)c1C(=O)O)c1ccncc1 | 6.27 µM | – |
| CC(=O)Oc1ccccc1C(=O)Nc1ncc([N+](=O)[O-])s1 [NITAZOXANIDE] | 0.424 µM | – |
| O=C(Nc1scc(-c2ccc(Cl)cc2)c1C(=O)O)c1cc(F)ccc1Br | 0.96 µM | – |
| Cc1ccsc1C(=O)Nc1scc(-c2ccc(Cl)cc2)c1C(=O)O | 3.12 µM | – |
| O=C(Nc1scc(-c2ccc(Cl)cc2)c1C(=O)O)c1cc(Cl)ccc1F | 8.77 µM | – |
| CADMIUM DICHLORIDE | – | inhibition [10]: 91.4% |
| CC(C)(C)C1CCc2c(sc(NC(=O)c3ccco3)c2C(=O)O)C1 (configuration not stated) | – | inhibition [2]: 71.2%; Activity (Mus musculus [3]): Active |
